Laboratory results taken from the SangsterLogP compilation.

First: CC(=O)Oc1c(I)cc(C#N)cc1I
Second: CNC(=O)Oc1c(I)cc(C#N)cc1I
The logP of the first is higher: 3.8 for the first, 3.3 for the second.

First: CC(C)C(=O)Oc1c(I)cc(C#N)cc1I
Second: COc1c(I)cc(C#N)cc1I
The logP of the first is higher: 4.6 for the first, 4.1 for the second.

Compared with `CSc1c(C)cc(O)cc1C`, `CSc1ccc(O)cc1C` is lower in logP: 2.8 for the first, 2.3 for the second.

Compared with `N#Cc1cc(I)c(O)c(I)c1`, `N#Cc1cc(I)c(O)c([N+](=O)[O-])c1` is lower in logP: 3.8 for the first, 2.7 for the second.

Compared with `O=C(O)c1cc(I)c(O)c(I)c1`, `COC(=O)c1cc(I)c(O)c(I)c1` is higher in logP: 3.7 for the first, 3.9 for the second.

Going from `CCCCN(CCCC)SN(C)C(=O)Oc1cccc2c1OC(C)(C)C2` to `CCCCCCCC(=O)Oc1c(I)cc(C#N)cc1I`, the logP rises from 5 to 6.8.

First: Fc1c(F)c(F)c(S)c(F)c1F
Second: CS(=O)(=O)c1c(F)c(F)c(F)c(F)c1F
The logP of the first is higher: 2 for the first, 1.2 for the second.

Going from `COc1ccccc1[N+](=O)[O-]` to `COc1c(I)cc(C#N)cc1[N+](=O)[O-]`, the logP rises from 2 to 2.9.

First: Cc1cc(I)c(O)c(I)c1
Second: NC(=S)c1cc(I)c(O)c(I)c1
The logP of the first is higher: 4.2 for the first, 3.2 for the second.

Compared with `O=[N+]([O-])c1ccc(Cl)c(O)c1`, `Cc1cc(O)ccc1Cl` is higher in logP: 2.4 for the first, 3.1 for the second.

First: Fc1c(F)c(F)c(C(F)(F)F)c(F)c1F
Second: N#Cc1cc(I)cc(I)c1O
The logP of the first is lower: 3 for the first, 4.1 for the second.

In the case of `O=C(O)c1cc(Cl)ccc1O`, the logP was 2.9.
